According to US10793557B2, “Sting agonist compounds” (Merck Sharp & Dohme Corp., priority 2018, dated 2020):

Experiments:
[1] = biological target: T1, full-length HAQ STING (Homo sapiens, UniProt Q86WV6, G230A/H232R/R293Q/R71H); test: 3H-cGAMP filtration binding assay (HAQ STING); conditions: competition with tritiated cGAMP, HAQ STING membrane
T1 construct: AviTag (after GG linker) (C); HRV3C cleavage site (after GS linker) (C); HIS8 (C); made in house; host or cells: Trichoplusia ni (Hi-Five) insect cells infected with baculovirus (virus generated and amplified in Sf21 cells); used as a washed membrane preparation
Source text: The ability of compounds to bind STING is quantified by the ability to compete with tritiated cGAMP ligand for human STING receptor membrane using a radioactive filter-binding assay. The binding assay employs STING receptor obtained from Hi-Five cell membranes overexpressing full-length HAQ STING prepared in-house and tritiated cGAMP ligand also purified in-house.
(§1) The ability of compounds to bind STING is quantified by their ability to compete with tritiated cGAMP ligand for human STING receptor membrane using a radioactive filter-binding assay. The binding assay employs STING receptor obtained from Trichoplusia ni cell membranes (T. ni; Expression Systems, cat #94-002F, www.expressionsystems.com) overexpressing full-length HAQ STING and tritiated cGAMP ligand.
The basic HAQ STING filtration assay protocol is as follows:
The compounds were serially titrated by the Hamilton STARPlus CORE in a 96-well plate (Greiner, #651201) using a 1:3 ten-point dose response format. After compound preparation, a 2.2 ug/ml working concentration of STING membrane (SEQ. ID. No. 1) was prepared by diluting concentrated membrane into assay buffer (1×PBS; Invitrogen # SH30028.02) and douncing 7× using a manual tissue homogenizer (Wheaton, #357546). 148 uL of prepared membrane was then manually added to each well of a 96-well deep-well polypropylene plate (Fisher Scientific, #12-566-121). Following membrane addition, 2 uL of either titrated test compound, DMSO control (Sigma #276855), or cold cGAMP control was added to the appropriate wells using a BIOMEK FX. Compound and membrane then preincubated for 60 min at RT to allow compound binding to equilibrate. Following equilibration, 8 nM of [^3H]c-GAMP ligand was prepared by diluting into assay buffer, and 50 uL of this working stock was then manually added to each well of the assay plate. Plates were then incubated at RT for 60 min, and the contents of each assay plate were then filtered through a 96-well GF/B filter plate (PerkinElmer, #6005250) using a TOMTEC MACH III Cell Harvester equipped with 20 mM HEPES buffer (Fisher Scientific, # BP299500). The filter plates were then dried at 55° C. for 30 min using a pressurized oven before 30 uL of ULTIMA GOLD F scintillate was added to each well. Tritium levels for each reaction well were then measured using a PerkinElmer TopCount plate reader.
(§2) After normalization to controls, the percent activity for each compound concentration was calculated by measuring the amount of remaining radioactivity. The plot of percent activity versus the log of compound concentration was fit with a 4-parameter dose response equation to calculate EC50 values.

[2] = biological target: T2, full-length WT STING (Homo sapiens, UniProt Q86WV6, H232R); test: 3H-cGAMP filtration binding assay (WT STING); conditions: competition with tritiated cGAMP, WT STING membrane
T2 construct: AviTag (after gg linker) (C); HRV3C cleavage site (after gs linker) (C); HIS8 (C); made in house; host or cells: Trichoplusia ni (Hi-Five) insect cells infected with baculovirus (virus generated and amplified in Sf21 cells); used as a washed membrane preparation
Procedure: as §1, with “WT” for “HAQ”
The basic WT STING filtration assay protocol is as follows:
16 nM of [^3H] c-GAMP ligand was prepared by diluting into assay buffer, and 50 uL of this working stock was manually added to each well of the assay plate. After ligand addition, 2 uL of either titrated test compound, DMSO control (Sigma #276855), or cold cGAMP control was added to the appropriate wells using a BIOMEK FX. The serially titrated compound was prepared on a Hamilton STARPlus CORE in a 96-well plate (Greiner, #651201) using a 1:3 ten-point dose response format. Following compound addition, a 2.2 ug/ml working concentration of STING membrane (SEQ. ID. No. 3) was prepared by diluting concentrated membrane into assay buffer (1×PBS; Invitrogen # SH30028.02) and douncing 7× using a manual tissue homogenizer (Wheaton, #357546). 148 uL of this prepared membrane was then manually added to each well of a 96-well deep-well polypropylene plate (Fisher Scientific, #12-566-121). Compound, ligand, and membrane then incubated for 60 min at RT before the contents of each assay plate were filtered through a 96-well GF/B filter plate (PerkinElmer, #6005250) using a TOMTEC MACH III Cell Harvester equipped with 20 mM HEPES buffer (Fisher Scientific, # BP299500). The filter plates were then dried at 55° C. for 30 min using a pressurized VWR oven before 30 uL of ULTIMA GOLD F scintillate was added to each well. Tritium levels for each reaction well were then measured using a PerkinElmer TopCount plate reader.
as §2

[3] = tested on: secretion of interferon-beta from THP1 cells; test: IFN-β secretion in THP1 cell culture (5 h); type: cell-based; conditions: Homo sapiens, THP-1, 5 h, 30 uM cGAMP = 100%; for activation at 3 µM: compound at 3 uM, read-out: % Effect relative to 2′3′-cGAMP (@ 3 uM); for activation at 30 µM: compound at 30 μM, read-out: % Effect at 30 μM relative to 2′3′-cGAMP
Procedure: The ability of compounds to stimulate the secretion of interferon-beta from THP1 cells was measured using a human IFN-β AlphaLISA kit (Perkin Elmer, Cat. No. AL265F). The basic protocol is as follows:
A Labcyte Echo 550 acoustic dispenser was used to transfer 120 nL of compound dissolved in DMSO into the wells of an empty, sterile 384-well microplate, (Corning, Cat. No. 3712). THP1 cells (American Type Culture Collection, Cat. No. TIB202) previously frozen in Recovery Medium (Life Technologies, Cat. No. 12648-010) were thawed and immediately diluted 10-fold into 37° C. assay medium (RPMI 1640+L-Glutamine & phenol red, Life Technologies, Cat. No. 11875-085; 0.5% heat inactivated fetal bovine serum, Sigma Aldrich, Cat. No. F4135; 1 mM Sodium Pyruvate, Life Technologies, Cat. No. 11360-070; 1× non-essential amino acids; Life Technologies, Cat. No. 11140-050). The cell viability and count was ascertained using a Beckman Coulter V-Cell XR cell counter. The cells suspension was centrifuged at 200×g for 5 min at RT. Cells were resuspended to a density of 0.8×10^6/mL in 37° C. assay medium. Subsequent liquid transfers were performed using either a Matrix electronic multichannel pipette or an Agilent Bravo Automated Liquid Handling Platform.
The assay was started by dispensing 40 μL of the previously prepared cell suspension into the wells of the plate containing compounds. After 5 h incubation at 37° C., 5% CO2 in a humidified atmosphere, the plate of cells and compounds was centrifuged at 200×g for 5 min at RT. From each well, 5 μL of supernatant was transferred into corresponding wells of a white 384-well plate (Perkin Elmer, Cat. No. 6005620). To these supernatant-containing wells was added 10 μL of 5× Anti-Analyte Acceptor beads (50 μg/mL of AlphaLISA HiBlock Buffer) and incubated for 30 min at RT while shaking on an orbital plate shaker. To each well was added 10 μL of 5× Biotinylated Antibody Anti-analyte (5 nM in AlphaLISA HiBlock Buffer) and incubated on an orbital plate shaker for 60 min at RT or overnight at 4° C. To each well was added 25 μL of 2× SA-Donor beads (80 μg/mL in AlphaLISA HiBlock Buffer) and incubated for 30-45 min at RT in the dark while shaking on an orbital plate shaker. The plate was then read on a Perkin Elmer Envision (λex=680 nm, […]). The percent effect of the AlphaLISA signal at each compound concentration was calculated based on 30 uM cGAMP positive controls and 0.3% DMSO negative controls. The plot of percent effect versus the log of compound concentration was fit with a 4-parameter concentration response equation to calculate EC50 values. The test compounds were tested at concentrations 30000, 10000, 3333, 1111, 370.4, 123.4, 41.2, 13.7, 4.6, and 1.5 nM with 0.3% residual DMSO. The control compound, cGAMP was tested at concentrations 100000, 33333, 11111, 3704, 1235, 412, 137, 46, and 15 nM with 0.3% residual DMSO.
Compounds of the disclosure were evaluated for IFN-β secretion in THP1 cell culture as described above. The following table tabulates the biological data for these compounds as percent activation relative to 2′3′-cGAMP at the 30 µM concentration.

T2 sequence (Q86WV6 with tags, fused parts or gaps H232R): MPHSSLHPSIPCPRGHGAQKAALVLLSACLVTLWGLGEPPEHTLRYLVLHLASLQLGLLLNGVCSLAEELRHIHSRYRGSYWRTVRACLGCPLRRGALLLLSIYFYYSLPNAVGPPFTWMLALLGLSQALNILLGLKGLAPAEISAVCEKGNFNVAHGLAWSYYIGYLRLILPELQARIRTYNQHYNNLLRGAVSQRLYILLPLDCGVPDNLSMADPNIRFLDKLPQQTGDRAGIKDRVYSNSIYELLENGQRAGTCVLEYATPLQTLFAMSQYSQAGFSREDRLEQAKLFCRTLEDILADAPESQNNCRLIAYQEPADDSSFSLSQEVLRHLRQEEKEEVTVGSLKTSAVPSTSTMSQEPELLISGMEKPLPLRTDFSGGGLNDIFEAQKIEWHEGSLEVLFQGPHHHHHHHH
T1 sequence (Q86WV6 with tags, fused parts or gaps R71H/G230A/H232R/R293Q): as the sequence (Q86WV6 with tags, fused parts or gaps H232R) above, with R71H, G230A, R293Q counted along it

Row | Compound | EC50 [1] [nM] | EC50 [2] [nM] | activation at 3 µM [3] [%] | activation at 30 µM [3] [%]
1 | COc1cc2sc(C(=O)C[C@H](C)C(=O)O)cc2c(F)c1OCCOc1c(OC)cc2sc(C(=O)C[C@H](C)C(=O)O)cc2c1F [Example 50, (2S,2′S)-4,4′-((ethane-1,2-diylbis(oxy))bis(4-fluoro-6-methoxybenzo[b]thiophene-5,2-diyl))bis(2-methyl-4-oxobutanoic acid)] | 1 | 1 |  | 44
2 | COc1cc2sc(C(=O)C[C@H](C)C(=O)O)cc2nc1OCCCOc1c(OC)cc2sc(C(=O)CCC(=O)O)cc2c1F [Example 21, (S)-4-(5-(3-((2-(3-carboxypropanoyl)-4-fluoro-6-methoxybenzo[b]thiophen-5-yl)oxy)propoxy)-6-methoxythieno[3,2-b]pyridin-2-yl)-2-methyl-4-oxobutanoic acid] | 1 | 5 |  | 59
3 | COc1cc2sc(C(=O)C[C@H](C)C(=O)O)cc2cc1OCCOc1cc2sc(C(=O)C[C@H](C)C(=O)O)cc2cc1OC (racemic) [Example 57, rac-(R)-4-(5-(2-((2-((R)-3-carboxybutanoyl)-5-methoxybenzo[b]thiophen-6-yl)oxy)ethoxy)-6-methoxybenzo[b]thiophen-2-yl)-2-methyl-4-oxobutanoic acid] | 92 | 398 |  | 15
4 | COc1cc2sc(C(=O)C[C@@H](C)C(=O)O)cc2cc1OCCOc1c(OC)cc2sc(C(=O)C[C@H](C)C(=O)O)cc2c1F [Example 66, (R)-4-(5-(2-((2-((S)-3-carboxybutanoyl)-4-fluoro-6-methoxybenzo[b]thiophen-5-yl)oxy)ethoxy)-6-methoxybenzo [b]thiophen-2-yl)-2-methyl-4-oxobutanoic acid] | 4 | 20 |  | 103
5 | COc1cc2sc(C(=O)C[C@H](C)C(=O)O)cc2nc1OCCCOc1c(OC)cc2sc(C(=O)CC(C)(C)C(=O)O)cc2c1F [Example 59, (S)-4-(5-(3-((2-(3-carboxybutanoyl)-6-methoxythieno[3,2-b]pyridin-5-yl)oxy)propoxy)-4-fluoro-6-methoxybenzo[b]thiophen-2-yl)-2,2-dimethyl-4-oxobutanoic acid] | 1 | 2 |  | 18

The next lines start with results.

Row | EC50 [1] [nM] | EC50 [2] [nM] | Compound | activation at 3 µM [3] [%] | activation at 30 µM [3] [%]
6 | 4 | 46 | COc1cc2sc(C(=O)C[C@H](C)C(=O)O)cc2c(Cl)c1OCCCOc1c(O)cc2sc(C(=O)C[C@H](C)C(=O)O)cc2c1Cl [Example 187, (S)-4-(5-(3-((2-((S)-3-carboxybutanoyl)-4-chloro-6-hydroxybenzo[b]thiophen-5-yl)oxy)propoxy)-4-chloro-6-methoxybenzo[b]thiophen-2-yl)-2-methyl-4-oxobutanoic acid] | 128 | 
7 | 167 | 1920 | COc1cc2sc(C(=O)[C@H]3C[C@@H]3C(=O)O)cc2c(F)c1OCCCOc1c(OC)cc2sc(C(=O)[C@@H]3C[C@H]3C(=O)O)cc2c1F [Example 87, trans-2-(5-(3-((2-((1R,2R)-2-carboxycyclopropanecarbony)-4-fluoro-6-methoxybenzo[b]thiophen-5-yl)oxy)propoxy)-4-fluoro-6-methoxybenzo[b]thiophene-2-carbonyl)cyclopropane carboxylic acid] |  | 120
8 | 3 | 5 | COc1cc2sc(C(=O)C[C@H](C)C(=O)O)cc2cc1OCCCOc1c(OC)cc2sc(C(=O)C[C@H](C)C(=O)O)cc2c1Cl [Example 155, (S)-4-(5-(3-((2-((S)-3-carboxybutanoyl)-4-chloro-6-methoxybenzo[b]thiophen-5-yl)oxy)propoxy)-6-methoxybenzo[b]thiophen-2-yl)-2-methyl-4-oxobutanoic acid] | 129 | 
